Patent US4002742A, “1-N-alkyl-4,6-di-(aminoglycosyl)-1,3-diaminocyclitols, methods for their manufacture, methods for their use as antibacterial agents, and compositions useful therefor” (priority 1974, dated 1977)
Converted amounts (≈) assume the structure as drawn.

Experiments:
Type in all cases: cell-based
[1] = system: organisms resistant to the parent compound; assay: activity against organisms resistant to the 1-N-unsubstituted parent compounds; conditions: organisms resistant to the 1-N-unsubstituted precursors
From the text: (§1) Particularly useful compounds of our invention are those wherein X is a lower alkyl having up to 8 carbon atoms, particularly those having up to 4 carbon atoms, e.g. compounds of formulae I, II, III, IV, and V wherein X is methyl, ethyl, n-propyl or n-butyl.

[2] = system: gram positive bacteria and gram negative bacteria; assay: antibacterial activity (standard dilution tests); conditions: versus parent antibiotic
From the text: as §1

bacteria = assay: antibacterial activity and spectrum compared with the gentamicins
Escherichia coli = assay: in vitro minimal inhibitory concentration, standard tube dilution method in Mueller-Hinton broth
From the text: In Table 1, set forth below is shown the in vitro minimal inhibitory concentration (MIC) of gentamicin C2a against representative gram-positive gram-negative bacteria. The results are derived using the standard tube dilution method in Mueller-Hinton broth.
In Table 2, set forth below is shown the in vitro minimal inhibitory concentration (MIC) of gentamicin C2b against representative gram-positive and gram-negative bacteria. The results are derived using the standard tube dilution method in Mueller-Hinton broth.

SMILES | activity against resistant organisms [1] | further results
CCCN[C@@H]1C[C@H](N)[C@@H](O[C@H]2OC(CN)=CC[C@H]2N)[C@H](O)[C@H]1O[C@H]1OC[C@](C)(O)[C@H](NC)[C@H]1O [1-N-(n-propyl) sisomicin, 1-N-(n-propyl)sisomicin] | exhibit activity against gram negative organisms which are resistant to their 1-N-unsubstituted precursors | 
CCCN[C@@H]1C[C@H](N)[C@@H](O[C@H]2OC(C(C)N)=CC[C@H]2N)[C@H](O)[C@H]1O[C@H]1OC[C@](C)(O)[C@H](NC)[C@H]1O (stereo partly shown) [1-N-(n-propyl) verdamicin, 1-N-(n-propyl)verdamicin] | exhibit activity against gram negative organisms which are resistant to their 1-N-unsubstituted precursors | 
CN[C@@H]1[C@@H](O)[C@@H](O[C@@H]2[C@@H](O)[C@H](O[C@H]3OC(CN)=CC[C@H]3N)[C@@H](N)C[C@H]2NCCCCN)OC[C@]1(C)O [1-N-(δ-aminobutyl) sisomicin, 1-N-(δ-aminobutyl)sisomicin] | exhibit activity against gram negative organisms which are resistant to their 1-N-unsubstituted precursors | 
CN[C@@H]1[C@@H](O)[C@@H](O[C@@H]2[C@@H](O)[C@H](O[C@H]3OC(C(C)N)=CC[C@H]3N)[C@@H](N)C[C@H]2NCCCCN)OC[C@]1(C)O (stereo partly shown) [1-N-(δ-aminobutyl) verdamicin, 1-N-(δ-aminobutyl)veradamicin] | exhibit activity against gram negative organisms which are resistant to their 1-N-unsubstituted precursors | 
CCN[C@@H]1C[C@H](N)[C@@H](O[C@H]2OC(CN)=CC[C@H]2N)[C@H](O)[C@H]1O[C@H]1OC[C@](C)(O)[C@H](NC)[C@H]1O [1-N-ethylsisomicin] | exhibit activity against gram negative organisms which are resistant to their 1-N-unsubstituted precursors | antibacterial activity compared to the parent antibiotics [2]: enhanced antibacterial activity
CCN[C@@H]1C[C@H](N)[C@@H](O[C@H]2OC(C(C)N)=CC[C@H]2N)[C@H](O)[C@H]1O[C@H]1OC[C@](C)(O)[C@H](NC)[C@H]1O (stereo partly shown) [1-N-ethylverdamicin] | exhibit activity against gram negative organisms which are resistant to their 1-N-unsubstituted precursors | 
CN[C@@H]1[C@@H](O)[C@@H](O[C@@H]2[C@@H](O)[C@H](O[C@H]3O[C@H]([C@H](C)N)CC[C@H]3N)[C@@H](N)C[C@H]2N)OC[C@]1(C)O [gentamicin C2a] |  | activity relative to the gentamicin C complex (bacteria; as the free base, of the activity of the gentamicin C complex): about 74%; antibacterial spectrum in vitro (bacteria; compared with gentamicin C1, C1a and C2): substantially the same antibacterial spectrum in vitro as do gentamicin C1, C1a, and C2; MIC (Escherichia coli): 17.5 µg/mL (≈ 37.8 µM)
